The CheMixHub viscosity set
± gives the uncertainty stated by the source.

Experiment: xn = mol fraction of the nth substance listed

CNC=O + CCCO
viscosity [mPa·s], 101 kPa
Conditions	x2 = 0.1009	x2 = 0.2001	x2 = 0.3003	x2 = 0.4003	x2 = 0.5005	x2 = 0.6	x2 = 0.7001	x2 = 0.8009	x2 = 0.9007
303.15 K	1.545 ± 0.015	1.51 ± 0.014	1.475 ± 0.014	1.454 ± 0.013	1.441 ± 0.013	1.444 ± 0.013	1.464 ± 0.013	1.52 ± 0.014	1.605 ± 0.015
308.15 K	1.423 ± 0.014	1.389 ± 0.013	1.357 ± 0.013	1.336 ± 0.012	1.322 ± 0.012	1.321 ± 0.012	1.337 ± 0.012	1.381 ± 0.013	1.448 ± 0.013
313.15 K	1.316 ± 0.013	1.284 ± 0.012	1.252 ± 0.012	1.231 ± 0.011	1.216 ± 0.011	1.213 ± 0.011	1.225 ± 0.011	1.258 ± 0.011	1.31 ± 0.012
318.15 K	1.22 ± 0.012	1.189 ± 0.011	1.158 ± 0.011	1.138 ± 0.011	1.123 ± 0.01	1.118 ± 0.01	1.124 ± 0.01	1.149 ± 0.01	1.188 ± 0.011
323.15 K	1.134 ± 0.011	1.105 ± 0.011	1.075 ± 0.01	1.054 ± 0.0099	1.036 ± 0.0097	1.03 ± 0.0095	1.034 ± 0.0095	1.051 ± 0.0097	1.079 ± 0.01

CCCCOCCO + CCCO
viscosity [mPa·s], 101 kPa
Conditions	x1 = 0.3032	x1 = 0.8553	x1 = 0.9516
298.15 K	–	2.725 ± 0.12	–
303.15 K	1.925 ± 0.12	–	2.615 ± 0.12

CCNCCO + O=C=O
viscosity [mPa·s], 101.3 kPa
Conditions	293.15 K	303.15 K	313.15 K	323.15 K
x2 = 0.09091	51.76 ± 10	29.14 ± 5.8	17.6 ± 3.5	11.32 ± 2.3
x2 = 0.1667	197.6 ± 40	99.53 ± 20	54.38 ± 11	31.96 ± 6.4
x2 = 0.2308	791.4 ± 160	361 ± 73	179.9 ± 36	97.29 ± 19

[Cl-].[Cl-].[Cl-].[Cl-].[Ti+4] + [Cl-].[Cl-].[Cl-].[Cl-].[Sn+4]
viscosity [mPa·s], 101 kPa
Conditions	x2 = 0.2	x2 = 0.4	x2 = 0.6	x2 = 0.8
293.15 K	0.847 ± 0.015	0.87 ± 0.015	0.895 ± 0.015	0.922 ± 0.016
313.15 K	0.702 ± 0.012	0.703 ± 0.012	0.705 ± 0.012	0.709 ± 0.012

CC(C)c1cc(C(C)C)cc(C(C)C)c1 + CCCCCCCCCCCC
viscosity [mPa·s], 102 kPa
Conditions	x1 = 0.0997	x1 = 0.2002	x1 = 0.3009	x1 = 0.4002	x1 = 0.5003	x1 = 0.6001	x1 = 0.7001	x1 = 0.8002	x1 = 0.8999
293.15 K	1.57 ± 0.02	1.67 ± 0.02	1.8 ± 0.03	1.94 ± 0.03	2.14 ± 0.03	2.37 ± 0.04	2.67 ± 0.04	3.05 ± 0.05	3.51 ± 0.06
303.15 K	1.31 ± 0.02	1.39 ± 0.02	1.48 ± 0.02	1.59 ± 0.03	1.73 ± 0.03	1.89 ± 0.03	2.09 ± 0.04	2.35 ± 0.04	2.66 ± 0.05
313.15 K	1.11 ± 0.02	1.17 ± 0.02	1.24 ± 0.02	1.32 ± 0.02	1.42 ± 0.03	1.54 ± 0.03	1.69 ± 0.03	1.86 ± 0.03	2.08 ± 0.04
323.15 K	0.956 ± 0.021	1 ± 0.02	1.05 ± 0.02	1.12 ± 0.02	1.19 ± 0.02	1.28 ± 0.03	1.39 ± 0.03	1.52 ± 0.03	1.67 ± 0.03

CCNCCO + CN(C)CCO
viscosity [mPa·s], 101.3 kPa
Conditions	x1 = 0.0999	x1 = 0.2001	x1 = 0.3	x1 = 0.4	x1 = 0.4998	x1 = 0.6001	x1 = 0.7	x1 = 0.8002	x1 = 0.9
293.15 K	3.88 ± 0.04	4.63 ± 0.05	5.5 ± 0.05	6.48 ± 0.06	7.55 ± 0.07	8.66 ± 0.08	9.82 ± 0.09	10.97 ± 0.1	12.14 ± 0.11
303.15 K	2.92 ± 0.03	3.31 ± 0.04	3.85 ± 0.04	4.47 ± 0.05	5.17 ± 0.05	5.88 ± 0.06	6.63 ± 0.06	7.39 ± 0.07	8.16 ± 0.08
313.15 K	2.18 ± 0.03	2.42 ± 0.03	2.8 ± 0.03	3.22 ± 0.04	3.71 ± 0.04	4.24 ± 0.04	4.78 ± 0.05	5.32 ± 0.05	5.84 ± 0.06
323.15 K	1.79 ± 0.03	1.95 ± 0.03	2.15 ± 0.03	2.39 ± 0.03	2.68 ± 0.03	2.98 ± 0.03	3.3 ± 0.04	3.62 ± 0.04	3.93 ± 0.04

COC(=O)c1ccccc1 + CS(C)=O
303.15 K, 101 kPa
Conditions	viscosity [mPa·s]
x1 = 0.1946	1.757 ± 0.02
x1 = 0.2734	1.752 ± 0.02
x1 = 0.3608	1.751 ± 0.02
x1 = 0.4584	1.751 ± 0.02
x1 = 0.5683	1.723 ± 0.02
x1 = 0.6931	1.682 ± 0.019

CCCCOCCO + CCCCCCC
viscosity [mPa·s], 101 kPa
Conditions	303.15 K	313.15 K
x1 = 0.0365	0.407 ± 0.006	0.364 ± 0.005
x1 = 0.1077	0.484 ± 0.006	0.426 ± 0.006
x1 = 0.2126	0.626 ± 0.008	0.534 ± 0.007
x1 = 0.316	0.799 ± 0.009	0.661 ± 0.008
x1 = 0.417	0.987 ± 0.011	0.797 ± 0.009
x1 = 0.5114	1.177 ± 0.012	0.941 ± 0.01
x1 = 0.6155	1.411 ± 0.014	1.116 ± 0.012
x1 = 0.7469	1.741 ± 0.017	1.359 ± 0.014
x1 = 0.845	2.011 ± 0.019	1.55 ± 0.016
x1 = 0.9057	2.162 ± 0.02	1.654 ± 0.017
x1 = 0.9663	2.306 ± 0.021	1.784 ± 0.017

COC(=O)c1ccccc1 + CCCCCCCCCC
101 kPa
Conditions	viscosity [mPa·s]
298.15 K, x2 = 0.0262	1.743 ± 0.054
298.15 K, x2 = 0.0672	1.629 ± 0.051
298.15 K, x2 = 0.1282	1.488 ± 0.046
298.15 K, x2 = 0.172	1.406 ± 0.044
298.15 K, x2 = 0.2455	1.29 ± 0.04
298.15 K, x2 = 0.2831	1.234 ± 0.039
298.15 K, x2 = 0.3238	1.184 ± 0.037
298.15 K, x2 = 0.3645	1.141 ± 0.036
298.15 K, x2 = 0.4095	1.095 ± 0.034
298.15 K, x2 = 0.458	1.05 ± 0.033
298.15 K, x2 = 0.5093	1.012 ± 0.032
298.15 K, x2 = 0.563	0.972 ± 0.031
298.15 K, x2 = 0.6077	0.946 ± 0.03
298.15 K, x2 = 0.6694	0.915 ± 0.029
298.15 K, x2 = 0.7276	0.891 ± 0.028
298.15 K, x2 = 0.8044	0.868 ± 0.027
298.15 K, x2 = 0.8571	0.855 ± 0.027
298.15 K, x2 = 0.9293	0.845 ± 0.027
308.15 K, x2 = 0.0467	1.4 ± 0.044
308.15 K, x2 = 0.0764	1.34 ± 0.042
308.15 K, x2 = 0.1148	1.271 ± 0.04
308.15 K, x2 = 0.1464	1.219 ± 0.038
308.15 K, x2 = 0.1853	1.163 ± 0.036
308.15 K, x2 = 0.2147	1.12 ± 0.035
308.15 K, x2 = 0.2537	1.076 ± 0.034
308.15 K, x2 = 0.2939	1.031 ± 0.032
308.15 K, x2 = 0.3391	0.988 ± 0.031
308.15 K, x2 = 0.3803	0.956 ± 0.03
308.15 K, x2 = 0.429	0.922 ± 0.029
308.15 K, x2 = 0.4756	0.894 ± 0.028
308.15 K, x2 = 0.5274	0.866 ± 0.027
308.15 K, x2 = 0.575	0.841 ± 0.027
308.15 K, x2 = 0.6318	0.816 ± 0.026
308.15 K, x2 = 0.6926	0.79 ± 0.025
308.15 K, x2 = 0.7434	0.775 ± 0.025
308.15 K, x2 = 0.8116	0.759 ± 0.024
308.15 K, x2 = 0.887	0.747 ± 0.024
318.15 K, x2 = 0.0153	1.249 ± 0.039
318.15 K, x2 = 0.0485	1.196 ± 0.037
318.15 K, x2 = 0.0774	1.151 ± 0.036
318.15 K, x2 = 0.113	1.101 ± 0.034
318.15 K, x2 = 0.1467	1.058 ± 0.033
318.15 K, x2 = 0.1837	1.015 ± 0.032
318.15 K, x2 = 0.2171	0.977 ± 0.031
318.15 K, x2 = 0.2582	0.936 ± 0.029
318.15 K, x2 = 0.2931	0.903 ± 0.028
318.15 K, x2 = 0.3395	0.863 ± 0.027
318.15 K, x2 = 0.3892	0.826 ± 0.026
318.15 K, x2 = 0.4363	0.795 ± 0.025
318.15 K, x2 = 0.4972	0.76 ± 0.024
318.15 K, x2 = 0.5486	0.734 ± 0.023
318.15 K, x2 = 0.6025	0.713 ± 0.023
318.15 K, x2 = 0.6669	0.692 ± 0.022
318.15 K, x2 = 0.7208	0.678 ± 0.021
318.15 K, x2 = 0.7971	0.663 ± 0.021
318.15 K, x2 = 0.8627	0.655 ± 0.021
